# Measurements as given in US5712160A, “Method of stimulating growth using neurotrophic peptides” (Board of Regents, The University of Texas System, priority 1995, dated 1998).
# Values joined by “and” are separate entries in the source; they are usually repeats but may differ in a detail not shown here. Equal values may be shown once. “Also recorded” adds a separate entry of the source. Residues, ends and D or L forms follow the SMILES beside them. No end group written: not given here.
# Legend:
# [1] = system: PC12 cells; type: cell-based, rat
# Experimental: Cell Culture. Stock cultures of PC12 cells are maintained in a medium consisting of RPMI 1640 supplemented with (v/v) 5% fetal calf serum and 5% horse serum ("complete medium"). At alternate feedings, media containing 1% PSN antibiotic mixture is used, consisting of 5 mg penicillin +5 mg streptomycin +10 mg neomycin/ml. Cells are grown in a humidified atmosphere containing 5% CO2. Cells are split once weekly in a 1:12 ratio by vigorous shaking and trituration. For experiments, PC12 cells are dislodged by shaking, centrifuged at 800×g, diluted in Puck's saline, counted in a hemocytometer, and plated on poly-D-lysine coated polystyrene tissue culture pates. For experiments to be performed in defined, serum-free medium, a modification of the N1 medium of Bottenstein et al. is used consisting of RPMI 1640 supplemented with insulin 5 ug/ml, transferrin 5 ug/ml, 20 nM progesterone, 100 μM putrescine, and 30 nM sodium selenite. Cells are plated in complete medium and allowed to attach overnight before washing twice with serum-free RPMI and addition of N1 medium. For experiments. examining effects of NGF on cell survival following serum deprivation, cells are plated in complete medium and allowed to attach overnight. Cells are then washed once with RPMI containing sheep anti-mouse beta-NGF to remove any residual NGF from serum. After washing once in RPMI, cells receive varying doses of NGF in RPMI. Media is changed on the third day of serum deprivation. On the fourth day, viability is assessed by ^35 S-methionine incorporation into trichloroacetic acid precipitable proteins. The effects of NGF on the response of PC12 cells to peptides is also examined by reduction of the dye 3, (4,5-dimethylthiazol-2-yl)-2,5-diphenyl-tetrazolium (MTT). For experiments using MTT, cells (1×10^4) are plated on poly-D-lysine coated 6 mm wells (96 well plates). Cells are allowed to attach overnight before addition of NGF and/or peptide. After 24 hr, media is removed and replaced with RPMI 1640 medium without serum. Following a 24 hour recovery period, each well is incubated with MTT for 4 hours at 37° C. Formaxan crystals are then solubilized in isopropanol containing 0.04N HCl and plates read on an ELISA reader using test and reference wavelengths of 570 and 630 nm, respectively. All statistics are performed by computer-assisted methods using the Number Cruncher for Statistical Sciences (NCSS) package. […]
# The survival of PC12 cells was measured as a function of the amount of peptide P4.
# Cells were plated out as mentioned above in RPMI 1640 without serum but in the presence of a fixed amount of NGF with varying amounts of peptide from 0.1 to 100 ug/ml (day one). […] The incorporation of ^35 S-Met into protein was determined by TCA precipitation and protein assay.
# [2] = biological target: labelled NGF (Homo sapiens, UniProt P01138); experiment: Binding of labelled NGF to peptide fixed on a membrane disc/filter
# labelled NGF, sequence (P01138 122-241): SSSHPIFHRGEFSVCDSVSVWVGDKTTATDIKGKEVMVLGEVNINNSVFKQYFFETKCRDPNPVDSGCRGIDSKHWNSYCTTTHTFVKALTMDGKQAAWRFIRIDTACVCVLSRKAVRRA
# Experimental: Membrane discs were placed into wells of 96 well plate. Peptide (for example 265 ng/ul) was spotted on each disc. Series dilutions of peptide were used to assure the binding. The disc was dried at 37° C. (or 40° C.) for 1 hour. […] 4% BSA TBS was added to each well. An amount of labelled NGF was added to each well, followed by incubation in 4% BSA TBS. Each disc was washed 4 times with 200 ul TBS (5 minute interval). The discs were transferred to counting vial and counted.
# Peptide P4 was attached to a solid matrix at various concentrations and the binding of labeled NGF measured to these various concentrations of bound P4. It is noted that an apparent maximal binding was achieved when about 3 μg of peptide P4 were bound. FIG. 4 illustrates how differing amounts of peptide bound differing amounts of labelled NGF. Here the peptide is fixed to a filter in varying amounts, then exposed to constant amounts of labelled NGF and washed extensively to displace unspecifically bound radioactivity. […] The specific augmentation of NGF effects may thus be understood when small amounts of peptide are added.
# [3] = system: PC12 cells transplanted into rat cortex; experiment: Transplant of pretreated PC12 cells into lesioned rat brain, NGF receptor immunohistochemistry (Ig192); type: in vivo; settings: cells treated in vitro two weeks; rat cortex stab wound; two weeks after transplant
# Experimental: PC12 cells were treated with nerve growth factor (NGF) or peptide P4 in vitro for two weeks. The cells were then transplanted into a rat cortex at the site of the stab wound or 6-hydroxy dopamine-induced lesion. Two weeks after the transplant of the P12 cells, the animal brain was processed for immunohistochemistry by staining with monoclonal antibody to NGF receptor (Ig192). […] The stab-wound lesions carried out by inserting a 24 gauge needle into a stereotoxicly fixed animal so as to lesion motor cortex. Cells were then deposited with the same needle into the wound cavity.
# The 6-hydroxydopamine lesions were carried out by injecting […] stereotoxicly into striatum with a needle two weeks prior to transplantation and/or treatment of animals.
# [4] = system: NGF receptor on PC12 cells
# Experimental: Competitive binding assay. The following method of binding assay was carried out: precoat the 24-well plates were precoated with cytochrome C and the PC12 cells plated overnight as mentioned above. The ^125 I labeled NGF was added at 5 ng/ml in the presence of different doses of peptide from 4 ug/ml to 50 ug/ml. […] These peptides are very acidic and NGF is very basic.
# In another experiment 24-well plates were precoated with poly-D-Lys at 0.06 mg/ml for 15 minutes and PC12 cells plated overnight at 1×10^5 cells/well in RPMI 1640 with serum conditioned media. The ^125 I-NGF was added at, e.g., 5 ng/ml, in the presence of varying amounts of peptide from 0.01 ug/ml to 50 ug/ml in Hepes buffer with 1 mg/ml BSA. The cells were incubated at rt. for 1 hour then washed with PBS three times and lysed with 0.5N NaOH. The radioactivity was then measured. Protein concentrations of the aliquots were determined by Lowry assay.
# [5] = biological target: NGFR-I; settings: high affinity, low capacity binding site; read-out: equilibrium dissociation constant (Kd) of NGF binding; cited from earlier work
# [6] = biological target: T1, NGFR-II (Homo sapiens, UniProt P08138); settings: low affinity, high capacity binding site; read-out: equilibrium dissociation constant (Kd) of NGF binding; cited from earlier work
# T1 sequence (P08138 29-427): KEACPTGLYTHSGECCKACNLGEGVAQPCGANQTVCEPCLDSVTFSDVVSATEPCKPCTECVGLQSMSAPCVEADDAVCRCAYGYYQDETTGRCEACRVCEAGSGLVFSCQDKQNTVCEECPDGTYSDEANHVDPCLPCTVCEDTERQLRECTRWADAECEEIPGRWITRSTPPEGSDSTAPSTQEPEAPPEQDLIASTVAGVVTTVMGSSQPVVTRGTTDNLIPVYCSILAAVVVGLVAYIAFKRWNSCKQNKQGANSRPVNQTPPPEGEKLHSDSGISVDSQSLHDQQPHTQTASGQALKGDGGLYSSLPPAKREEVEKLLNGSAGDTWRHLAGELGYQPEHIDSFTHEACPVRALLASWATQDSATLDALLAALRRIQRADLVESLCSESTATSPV
compound,measurement,setting,value
"CC(C)[C@H](NC(=O)[C@@H](NC(=O)[C@H](CC(N)=O)NC(=O)[C@H](CCC(N)=O)NC(=O)[C@H](CCCCN)NC(=O)[C@H](CC(=O)O)NC(=O)[C@H](CCC(N)=O)NC(=O)[C@@H](N)CS)[C@@H](C)O)C(=O)N[C@@H](CS)C(=O)N[C@@H](CCC(=O)O)C(=O)N[C@@H](CCC(=O)O)C(=O)N[C@@H](CS)C(=O)N1CCC[C@H]1C(=O)N[C@@H](CCC(=O)O)C(=O)O [P4, Cys--Gln--Asp--Lys--Gln--Asn--Thr--Val--Cys--Glu--Glu--Cys--Pro--Glu--OH] (H-CQDKQNTVCEECPE-OH; N-terminus assumed)",PC12 cell protein synthesis activity (FIG. 6B),[1]; NGF concentrations of 0.1 to 10 ng/ml,trophic effects
same,peptide concentration at maximal PC12 cell survival (FIG. 3),[1]; in the presence of 2 ng/ml NGF,5 µg
same,increase in protein synthesized (35S-Met incorporation),"[1]; peptide 0.1 ug/ml, serum-free, fixed amount of NGF, day four",20%
same,amount of bound peptide at apparent maximal binding of labeled NGF (FIG. 4),"[2]; peptide fixed to filter, constant amount of labelled NGF",about 3 μg
same,binding of labelled NGF to fixed peptide,"[2]; varying amounts of peptide on filter, washed extensively",saturation indicative of specific binding of NGF to peptide
same,NGF receptor immunostaining of transplanted PC12 cells (FIG. 8B vs 8A),[3],significantly greater NGF receptor; also recorded: denser accumulation of NGF receptor sites
same,binding of labeled NGF to PC12 cells (FIG. 5),[4]; lower peptide concentrations measured (1.3 μg),amplified
same,displacement of bound labeled NGF from PC12 cells (FIG. 5),[4]; peptide at concentrations higher than about 1.5 μg,effective in displacing bound labeled NGF
same,increase in binding of 125I-NGF to its receptor,"[4]; peptide within 0.01-0.1 ug/ml range, 125I-NGF 5 ng/ml, PC12 cells, 1 hour rt",50%
"NGF: Nerve growth factor, a neurotrophic protein; only the β-NGF subunit has nerve growth promoting activity",displacement of labeled NGF from PC12 cells (FIG. 1),"[4]; 10 micrograms unlabeled NGF or peptide, various concentrations of free labeled NGF",more effective in displacing labeled NGF than most of the synthetic peptides
same,Kd,[5],~0.01 nM and 0.01 nM
same,Kd,[6],~1 nM and 1 nM
Tyr--Cys--Gln--Asp--Lys--Gln--Asn--Thr--Val--Cys--Glu--Glu--Cys--Pro--Glu--OH (YCQDKQNTVCEECPE-OH; cysteine pairing not given here) [P5],PC12 cell survival during serum deprivation (FIG. 6),[1]; in the presence of 0.5 ng/ml NGF,enhancement of cell survival
